Here are results for two compounds from article PMC5369524 (Chemical Science, 2016).

One assay concerns HIV. As to conditions: ref [55]; cited from earlier work.
For assay [1], the target named is C-terminal ZF2 of HIV1NCp7 (Human immunodeficiency virus type 1 group M subtype B, UniProt P12493). Conditions: figures in parentheses of Table 1.
In another assay the target is full NCp7 peptide (Human immunodeficiency virus type 1 group M subtype B, UniProt P12493).
For assay [2], the target named is full NCp7 zinc finger peptide (Human immunodeficiency virus type 1 group M subtype B, UniProt P12493). As to conditions: positive band centered at 210–220 nm.

For the compound `CCn1cnc2c(=O)[nH]c(N)nc21.N.[Cl][Pt+].c1ccc2ncccc2c1` [SP-4-2-[PtCl(NH3)(9-EtGua)(quinoline)]^+], the Anti-HIV activity entry in the assay on HIV is recorded as “modest anti-HIV activity”.
Regarding `CCn1cnc2c(=O)[nH]c(N)nc21.NCCNCCN.[Pt+2]` [[Pt(dien)(9-EtGua)]^2+], the “K a, association with C-terminal ZF2 of HIV1NCp7” value in assay [1] is “(13.10 ± 0.94) ×10^3 M^–1”. At full NCp7 peptide (figures in bold parentheses of Table 1), the “K a, association with full NCp7 peptide” value is reported as “(20 ± 0.08) ×10^3 M^–1”. For the same compound, on full NCp7 peptide (fluorescence quenching), the “K a, association constant with full NCp7 peptide” value is on record as 2.0 × 10^4 M^–1. Besides, the “Effect on CD spectrum / tertiary structure of NCp7” value in assay [2] is “no major disruption of the peptide”.
